Reference: article PMC8869242 (Biomedicines, 2022)
Like-named read-outs stand apart in the source and are kept apart here.

Key:
[1] = Hematological and plasma biochemical analyses in tumor-bearing mice; assay type: in vivo; details: Pd2Spm 5 mg/kg/day, cisplatin 2 mg/kg/day, end of study
Method: Red blood cells (RBC), hemoglobin (Hb), hematocrit (Hct), mean corpuscular volume (MCV) and mean corpuscular hemoglobin (MCH) were analyzed in a small aliquot of whole blood using ABX Micros 60 automated analyzer (Horiba ABX SAS, Montpellier, France). The remaining blood was centrifuged at 900× g for 15 min, and plasma was separated into aliquots and frozen at −80 °C for biochemical assays. Plasma parameters were analyzed using commercial kits for aspartate aminotransferase—AST (AST CP, A11A01629), alanine transaminase—ALT (ALT CP, A11A01627), cholesterol (CHOL CP, A11A01634), creatinine (Creatinine 120 CP, A11A01868), glucose (Glucose PAP CP, A11A01668), total protein (Total protein CP, A11A01669), triglycerides (Triglycerides CP, A11A01640) and urea (Urea CP, A11A01641). All parameters were determined with an automated analyzer Pentra 400 (ABX Horiba diagnostics, Montpellier, France).

[2] = tested on: MDA-MB-468 TNBC cells; details: cited from earlier work
[3] = tested on: MDA-MB-231 breast tumors; assay: Histology, Ki-67 immunohistochemistry and TUNEL assay of xenograft tumors; assay type: in vivo, mice; details: Pd2Spm 5 mg/kg/day, cisplatin 2 mg/kg/day, versus vehicle
Method: For the immunohistochemical study, tissue sections were dewaxed and rehydrated. Slides were submitted to […] by immersion in 10% retrieval solution (Dako) and kept in a water bath at 100 °C for 20 min. After blocking of non-specific staining, slides were incubated with primary antibody for Ki-67 (1:50 dilution, clone MIB-1, Dako) overnight at 4 °C. Slides were then stained with Novolink Polymer Detection Systems (Leica Biosystems Inc., Buffalo Grove, IL, USA) following manufacturer’s instructions, counterstained with hematoxylin and permanently mounted. The nuclear Ki-67 staining was analyzed using Fiji’s high-throughput automatic quantitation with Andy’s Algorithm pipeline, as described elsewhere. The immunoreactivity was evaluated, counting at least 600 nuclei/field from 5 representative fields of the lesion at high magnification, avoiding necrotic areas. The ratio of Ki-67 positive nuclei per all counted nuclei was expressed as a percentage (Ki-67 proliferation index).
The paraffin-embedded tumor sections were deparaffinized, rehydrated through a graded series of ethanol and double distilled water and then stained with In Situ Cell Death Detection Kit (Roche Diagnostics GmbH, Mannheim, Germany) as per manufacturer’s instructions. Apoptosis was quantified at single-cell level by counting the number of cells positive for terminal deoxynucleotidyl transferase (TdT) dUTP nick-end labeling (TUNEL-positive cells). Briefly, tumor sections were incubated with 20 µg/mL proteinase K solution (in 10 mM Tris/HCl, pH 7.4–8) for 30 min at 37 °C. Slides were washed and stained with TUNEL reaction mixture (mixture of terminal deoxynucleotidyl transferase with labeled nucleotides) for 60 min at 37 °C in the dark followed by three washes. Slides were mounted with […] Antifade Mounting Medium with DAPI, and coverslips were sealed. At least twenty nonoverlapping high-power microscope fields of each tumor section were captured while avoiding areas with central necrosis. Fluorescence images were acquired using the LionHeart automated microscope at Ex: 520–560 nm and Em: 570–620 nm.

[4] = tested on: breast cancer cells; details: cited from earlier work
[5] = tested on: MDA-MB-231; details: cited from earlier work
[6] = tested on: VEGF secretion by MDA-MB-231 cells; assay: VEGF production, Human VEGF Quantikine ELISA of cell culture medium; assay type: cell-based; details: MDA-MB-231, 5–20 µM, 12 h
Method: MDA-MB-231 cells were seeded in 96-well microplates at the cell density 1.5 × 10^4 cells/cm^2 (final volume 200 µL/well) and left 24 h to attach. […] VEGF concentration in cell culture medium was determined in undiluted samples in duplicate using the Human VEGF Quantikine ELISA Kit (R&D Systems Inc., Minneapolis, MN, USA) according to the manufacturer’s protocol. In brief, 200 μL of conditioned media was added to a 96-well microplate pre-coated with monoclonal antibody for human VEGF and the plate was incubated for 2 h. After washing with wash buffer, enzyme-linked polyclonal antibody specific for human VEGF was added, followed by incubation for 2 h. The plate was washed to remove unbound antibody-enzyme reagent, substrate solution was added and incubated for 30 min and the reaction was terminated by the addition of the stop solution, producing a yellow solution. The optical density at 450 nm with wavelength correction at 540 nm was measured using a Synergy HT microplate reader (BioTek, Winooski, VT, USA). The concentration of VEGF was interpolated from the standard curve (15.6–1000 pg/mL) prepared in parallel.

[7] = mice; cited from earlier work
[8] = tested on: Ehrlich ascites carcinoma (EAC); details: 4 mg/kg, cited from earlier work; for tumor volume reduction: two injections per week for 2 weeks (cumulative 16 mg/kg); for deaths during treatment: two injections per week for 2 weeks

Row | SMILES | hematologic analysis (RBC, Hb, Htc, MCV, MCH) versus vehicle [1] | plasma biochemical analysis (urea, creatinine, glucose, AST, ALT, total proteins, triglycerides, total cholesterol) versus vehicle [1] | IC50 values [2] | Ki-67 index of tumors [3] | TUNEL-positive cells in tumors (DNA damage) [3] | mitotic count in tumors [3] | amount accumulated in breast cancer cells relative to cisplatin [4] | IC50 values [5] | VEGF secretion in cell culture medium [6] | accumulation in major organs relative to cisplatin [7] | serum terminal half-life relative to cisplatin [7] | tumor volume reduction ([8]; first study) [%] | tumor volume reduction ([8]; second study) [%] | deaths during treatment ([8]; first study) | deaths during treatment ([8]; second study)
1 | NCCCNCCCCNCCCN.[Cl][Pd][Cl].[Cl][Pd][Cl] [Pd2Spm, dinuclear palladium(II)-spermine chelate] | no significant deviations | did not reveal changes | within a low micromolar range | significantly decreased | significant increase | mitotic count of vehicle-treated animals was significantly increased compared to cisplatin- and Pd2Spm-treated groups | approximately four times lower | within a low micromolar range | inhibited VEGF secretion in cell culture medium in a dose-dependent manner | lower accumulation in major organs | very similar serum terminal half-life to cisplatin |  |  |  | 
2 | N.N.[Cl][Pt][Cl] [Cisplatin, cis-dichlorodiammine platinum(II), reference compound] |  |  |  |  | significant increase | mitotic count of vehicle-treated animals was significantly increased compared to cisplatin- and Pd2Spm-treated groups |  |  | inhibited VEGF secretion in cell culture medium in a dose-dependent manner |  |  | 36.4 | 46.7 | two associated deaths | no associated deaths
